Where a SMILES comes first, the peptide text is derived from it. [ ]: non-standard residue; d: D form.
Tests used:
Assay type in all cases: biochemical
Tau^Δ1‐250 [1] = target: T1, Tau^Δ1‐250 (Homo sapiens, UniProt P10636); assay: Circular dichroism of Tau^Δ1‐250 aggregation; conditions: 20 µM Tau^Δ1‐250, 20 µM RI‐AG03, aggregated 5 h; CD 180–260 nm
T1 construct: Tau^Δ1‐250 (an aggregate prone truncated version of full‐length Tau); made in house; host or cells: E. coli BL21(DE3)
Experimental: Circular dichroism (CD): CD spectra were obtained using a Chirascan plus qCD spectrometer between 180 and 260 nm with a bandwidth of 1 nm and a path length of 2 mm.
(§1) FIGURE 4 Lead peptide RI‐AG03 suppresses Tau β‐sheet content and forms of off‐pathway structures. […] 20 µM RI‐AG03 was added after 0, 24, and 72 h, of Tau aggregation (hatched gray bars), or not at all (solid gray bar representing end‐point aggregation of Tau^2N4R at 9 days). Note that Tau^2N4R aggregation plateaued at ∼72 h. […] One factor repeated measures ANOVA + Tukey post hoc statistical analysis: p > 0.05, *p ≤ 0.05, **p ≤ 0.01, ***p ≤ 0.001. (C) Negative stain TEM images using a Joel JEM‐1010 after the aggregation of 20 µM Tau^Δ1‐250 for 24 h, in the absence of RI‐AG03 (left), and in the presence of 20 µM RI‐AG03 (right). (D) The area and diameter of 200 large spherical species formed in the presence of 20 µM RI‐AG03 and recorded by TEM were quantified using iTEM software. […]

Tau^Δ1‐250 [2] = target: T1, Tau^Δ1‐250; assay: TEM of aggregated Tau^Δ1‐250
Experimental: Transmission electron microscopy (TEM): Tau was aggregated in similar conditions as above. Samples (10 µL) were loaded onto Formvar/Carbon 300 mesh copper grids for 3 min. The excess sample was wicked away and then negatively stained with 10 µL of filtered 2% phosphotungstic acid, pH 2, for 2 min. Grids were examined using a JEOL JEM‐1010 transmission electron microscope and were visualized and photographed at 50,000× magnification with 80.0 kV.
as §1

Tau^2N4R = target: T2, Tau^2N4R (Homo sapiens, UniProt P10636); assay: ThT fluorescence end-point, heparin-induced aggregation of Tau^2N4R
T2 construct: and full‐length Tau (Tau^2N4R); made in house; host or cells: E. coli BL21
T2 sequence (P10636 1-441 isoform P10636-8): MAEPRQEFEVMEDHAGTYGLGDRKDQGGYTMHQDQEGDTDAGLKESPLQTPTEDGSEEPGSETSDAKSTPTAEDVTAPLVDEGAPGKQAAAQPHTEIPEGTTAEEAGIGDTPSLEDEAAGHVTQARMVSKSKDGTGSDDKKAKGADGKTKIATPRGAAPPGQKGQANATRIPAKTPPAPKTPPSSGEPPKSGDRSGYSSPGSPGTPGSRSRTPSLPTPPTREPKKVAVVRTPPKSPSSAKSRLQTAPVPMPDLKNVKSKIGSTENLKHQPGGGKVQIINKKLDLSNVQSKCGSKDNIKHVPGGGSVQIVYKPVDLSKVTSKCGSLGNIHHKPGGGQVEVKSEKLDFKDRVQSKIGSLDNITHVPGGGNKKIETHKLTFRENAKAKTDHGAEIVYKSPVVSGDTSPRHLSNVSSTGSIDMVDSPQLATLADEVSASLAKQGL
Experimental: Fluorescence was measured (λex = 442 nm, λem = 483 nm), and data were normalized. […] The addition of inhibitor to the growth phase was controlled by adding an equivalent volume of buffer alone.
FIGURE 3 Lead peptide RI‐AG03 dose‐response and target specificity. […] (C) Concentration‐dependent inhibition of by Tau^Δ1‐250 by RI‐AG03. […] (E) Concentration‐dependent inhibition of by Tau^2N4R by RI‐AG03. […] (F) log10 scatter graph of Tau^2N4R inhibition by RI‐AG03 employing a curve fitting algorithm to calculate the IC50 at 5 µM. Experiments were conducted in triplicate and error bars were reported as standard deviation. One factor repeated measures ANOVA + Tukey post hoc statistical analysis: p > 0.05, *p ≤ 0.05, **p ≤ 0.01, ***p ≤ 0.001.

T1 sequence (P10636 568-758, stated change not applied): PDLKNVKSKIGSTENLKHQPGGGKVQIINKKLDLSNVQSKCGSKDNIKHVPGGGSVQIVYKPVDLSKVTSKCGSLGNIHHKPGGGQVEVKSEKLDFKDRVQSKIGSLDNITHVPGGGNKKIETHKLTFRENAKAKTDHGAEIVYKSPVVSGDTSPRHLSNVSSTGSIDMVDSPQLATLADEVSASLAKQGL

CC[C@@H](C)[C@@H](NC(=O)[C@@H](CCCCNC(C)=O)NC(=O)[C@@H](Cc1ccc(O)cc1)NC(=O)[C@@H](CCCCN)NC(=O)[C@H]1CCCN1C(=O)CNC(=O)[C@@H](CCCNC(=N)N)NC(=O)[C@@H](CCCNC(=N)N)NC(=O)[C@@H](CCCNC(=N)N)NC(=O)[C@@H](CCCNC(=N)N)NC(=O)[C@@H](CCCNC(=N)N)NC(=O)[C@@H](CCCNC(=N)N)NC(=O)[C@@H](CCCNC(=N)N)NC(=O)[C@@H](CCCNC(=N)N)NC(C)=O)C(=O)N[C@H](CCC(N)=O)C(=O)N[C@@H](C(=O)NCC(=O)N[C@H](CCCNC(=N)N)C(N)=O)C(C)C [RI‐AG03] (Ac-[dR][dR][dR][dR][dR][dR][dR][dR]G[dP][dK][dY][dK](Ac)[dI][dQ][dV]G[dR]-NH2)
CD spectral changes (random coil to secondary structure incl. β‐strands) (Tau^Δ1‐250 [1]): significantly suppressed
mean diameter of large spherical structures formed with the inhibitor (Tau^Δ1‐250 [2]; 20 µM Tau^Δ1‐250, 20 µM RI‐AG03, 24 h, TEM, 200 species quantified): ~36 nm
fibrils seen by TEM (Tau^Δ1‐250 [2]; 20 µM Tau^Δ1‐250 with heparin 24 h, equimolar (20 µM) RI‐AG03, negative stain TEM): these fibrils were not observed
IC50 (Tau^2N4R): 5 µM
ThT signal at 9 days, peptide added after 24 h of Tau^2N4R aggregation (Tau^2N4R; 20 µM Tau^2N4R, 20 µM RI‐AG03 added after 24 h, read at 216 h, versus negative control): reduction of ThT signal
ThT signal at 9 days, peptide added after 72 h of Tau^2N4R aggregation (Tau^2N4R; 20 µM Tau^2N4R, 20 µM RI‐AG03 added after 72 h, read at 216 h, versus negative control): no reduction of ThT signal

Source: paper PMC11567856, “A novel peptide‐based tau aggregation inhibitor as a potential therapeutic for Alzheimer's disease and other tauopathies” (Alzheimer's & Dementia, 2024)
